Source: patent US8119805B2, “Substituted disulfonamide compounds” (Gruenenthal GmbH, priority 2008, dated 2012)
Where a name gives a salt, the structure may show the parent alone.

Experiments:
[1] = target: T1, B1R receptor of the rat (rB1R) (Rattus norvegicus, UniProt P97583); assay: Functional investigation on the bradykinin 1 receptor (B1R), FLIPR Ca2+ assay, rB1R cells; format: cell-based; conditions: test substance 10 μM; CHO K1 cells transfected with rat B1R gene; Fluo-4 Ca2+ signal; agonist Des-Arg9-bradykinin at EC80; % of maximum achievable inhibition; read-out: B1R antagonism, rat [10 μM] % inhibition
T1 construct: expressed in transfected cells; host or cells: CHO K1 cells
T1 sequence (P97583 1-337): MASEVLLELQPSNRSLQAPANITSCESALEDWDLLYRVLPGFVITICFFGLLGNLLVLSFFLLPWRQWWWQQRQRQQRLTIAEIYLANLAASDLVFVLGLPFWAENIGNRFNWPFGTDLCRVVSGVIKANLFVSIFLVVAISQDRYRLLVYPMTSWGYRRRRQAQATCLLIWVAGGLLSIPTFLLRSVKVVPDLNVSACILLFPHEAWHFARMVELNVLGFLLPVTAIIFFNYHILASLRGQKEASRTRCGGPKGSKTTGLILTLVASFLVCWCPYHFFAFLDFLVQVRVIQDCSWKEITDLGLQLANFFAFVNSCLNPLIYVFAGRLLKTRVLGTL
Procedure: (§1) The agonistic or antagonistic action of substances on the bradykinin 1 receptor (B1R) of the human and rat species can be quantified with ectopically expressing cell lines (CHO K1 cells) and with the aid of a Ca^2+-sensitive dyestuff (Fluo-4) in a fluorescent imaging plate reader (FLIPR). The value in % activation is based on the Ca^2+ signal after addition of Lys-Des-[…]-bradykinin (0.5 nM) or Des-[…]-bradykinin (100 nM). Antagonists lead to a suppression of the Ca^2+inflow after addition of the agonist. % inhibition compared with the maximum achievable inhibition is stated. The agonistic or antagonistic action of substances on the bradykinin 1 receptor (B1R) of the human and rat species can be determined with the following assay. In accordance with this assay, the Ca^2+ inflow through the channel is quantified with the aid of a Ca^2+-sensitive dyestuff (type Fluo-4, Molecular Probes Europe BV, Leiden, Holland) in a fluorescent imaging plate reader (FLIPR, Molecular Devices, Sunnyvale, USA). Chinese hamster ovary cells (CHO K1 cells) transfected stably with the human B1R gene (hB1R cells) or the B1R gene of the rat (rB1R cells) are used. For functional studies, these cells are plated out on black 96-well plates with a clear base (BD Biosciences, Heidelberg, Germany or Greiner, Frickenhausen, Germany) in a density of 20,000-35,000 cells/well. The cells are left overnight at 37° C. and 5% CO2 in culture medium (hB1R cells: Nutrient Mixture Ham's F12, Gibco Invitrogen GmbH, Karlsruhe, Germany or DMEM, Sigma-Aldrich, Taufkirchen, Germany; rB1R cells: D-MEM/F12, Gibco Invitrogen GmbH, Karlsruhe, Germany) with 10 vol. % FBS (foetal bovine serum, Gibco Invitrogen GmbH, Karlsruhe, Germany or PAN Biotech GmbH, Aidenbach, Germany). On the following day, the cells are loaded for 60 min at 37° C. with 2.13 μM Fluo-4 (Molecular Probes Europe BV, Leiden Holland) in HBSS buffer (Hank's buffered saline solution, Gibco Invitrogen GmbH, Karlsruhe, Germany) with 2.5 mM probenecid (Sigma-Aldrich, Taufkirchen, Germany) and 10 mM HEPES (Sigma-Aldrich, Taufkirchen, Germany). The plates are then washed 2× with HBSS buffer, and HBSS buffer which additionally contains 0.1% BSA (bovine serum albumin; Sigma-Aldrich, Taufkirchen, Germany), 5.6 mM glucose and 0.05% gelatine (Merck KGaA, Darmstadt, Germany) is added. After a further incubation of 20 minutes at room temperature, the plates are inserted into the FLIPR for the Ca^2+ measurement. Alternatively, the plates are washed with buffer A (15 mM HEPES, 80 mM NaCl, 5 mM KCl, 1.2 mM CaCl2, 0.7 mM MgSO4, 2 g/l glucose, 2.5 mM probenecid), buffer A is added and the plates are loaded with 2.5 μM Fluo-4 and 0.025% Pluronic F127 (Sigma-Aldrich, Taufkirchen, Germany). Thereafter, the cells are washed 2× with buffer A and incubated for 30 minutes at room temperature with buffer A, which additionally contains 0.05% BSA and 0.05% gelatine, and thereafter inserted into the FLIPR for the Ca^2+ measurement. The Ca^2+-dependent fluorescence is measured here before and after addition of substances (λex=488 nm, λem=540 nm). Quantification is by measurement of the highest fluorescence intensity (FC, fluorescence counts) over time. The FLIPR protocol consists of 2 additions of substance. Test substances (10 μM) are first pipetted on to the cells and the Ca^2+ inflow is compared with the control (hB1R: Lys-Des-[…]-bradykinin>=50 nM; rB1R: Des-[…]-bradykinin 10 μM). This gives the result in % activation based on the Ca^2+ signal after addition of Lys-Des-[…]-bradykinin (>=50 nM) or Des-[…]-bradykinin (10 μM). After incubation for 10-20 minutes, Lys-Des-[…]-bradykinin (hB1R) or Des-[…]-bradykinin (rB1R) at the EC80 concentration is applied and the inflow of Ca^2+ is likewise determined. Antagonists lead to a suppression of the Ca^2+ inflow. The percent inhibition compared to the maximum achievable inhibition is calculated. In order to determine the IC50 value, the substances are added in various concentrations. […]

[2] = target: T2, human B1R receptor (hB1R) (Homo sapiens, UniProt P46663); assay: Functional investigation on the bradykinin 1 receptor (B1R), FLIPR Ca2+ assay, hB1R cells; format: cell-based; conditions: test substance 10 μM; CHO K1 cells transfected with human B1R gene; Fluo-4 Ca2+ signal; agonist Lys-Des-Arg9-bradykinin at EC80; % of maximum achievable inhibition; read-out: B1R antagonism, human [10 μM] % inhibition
T2 construct: expressed in transfected cells; host or cells: CHO K1 cells
T2 sequence (P46663 1-353): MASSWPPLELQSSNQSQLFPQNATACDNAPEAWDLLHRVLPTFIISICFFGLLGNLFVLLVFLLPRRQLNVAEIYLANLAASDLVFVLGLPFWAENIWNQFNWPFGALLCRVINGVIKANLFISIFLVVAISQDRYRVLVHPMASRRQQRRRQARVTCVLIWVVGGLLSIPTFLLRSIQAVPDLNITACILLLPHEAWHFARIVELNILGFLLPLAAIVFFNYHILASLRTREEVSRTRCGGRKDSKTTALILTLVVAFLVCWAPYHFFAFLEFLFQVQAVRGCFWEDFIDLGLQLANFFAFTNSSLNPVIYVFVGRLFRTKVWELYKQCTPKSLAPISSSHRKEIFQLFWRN
Procedure: as §1

Row | inhibition at 10 µM [1] [%] | inhibition at 10 µM [2] [%] | SMILES
1 | 12 | 58 | O=S(=O)(CCC1CCN(S(=O)(=O)c2cccc(Cl)c2Cl)C1)N1CCC(CCN2CCCC2)CC1 (centres unmarked) [Example 17, 1-(2-(1-(2,3-Dichlorophenylsulfonyl)pyrrolidin-3-yl)ethylsulfonyl)-4-(2-(pyrrolidin-1-yl)ethyl)piperidine hydrochloride]
2 | 11 | 65 | O=S(=O)(CCC1CCN(S(=O)(=O)c2cc(Cl)c(Cl)cc2Cl)C1)N1CCC(CCN2CCCC2)CC1 (centres unmarked) [Example 18, 4-(2-(Pyrrolidin-1-yl)ethyl)-1-(2-(1-(2,4,5-trichlorophenylsulfonyl)pyrrolidin-3-yl)ethylsulfonyl)piperidine hydrochloride]
3 | 13 | 77 | Cc1cc(S(=O)(=O)N2CCC(CCS(=O)(=O)N3CCC(CCN4CCCC4)CC3)C2)c(C)cc1Cl (centres unmarked) [Example 19, 1-(2-(1-(4-Chloro-2,5-dimethylphenylsulfonyl)pyrrolidin-3-yl)ethylsulfonyl)-4-(2-(pyrrolidin-1-yl)ethyl)piperidine]
4 | 73 | 97 | O=S(=O)(CCC1CCN(S(=O)(=O)c2cccc(Cl)c2Cl)C1)N1CCN(c2ccncc2)CC1 (centres unmarked) [Example 21, 1-(2-(1-(2,3-Dichlorophenylsulfonyl)pyrrolidin-3-yl)ethylsulfonyl)-4-(pyridin-4-yl)piperazine hydrochloride]
5 | 78 | 102 | Cc1cc(S(=O)(=O)N2CCC(CCS(=O)(=O)N3CCN(c4ccncc4)CC3)C2)c(C)cc1Cl (centres unmarked) [Example 23, 1-(2-(1-(4-Chloro-2,5-dimethylphenylsulfonyl)pyrrolidin-3-yl)ethylsulfonyl)-4-(pyridin-4-yl)piperazine]
6 | 33 | 62 | O=S(=O)(CCC1CCN(S(=O)(=O)c2ccc(Cl)c(Cl)c2)C1)N1CCN(c2ccncc2)CC1 (centres unmarked) [Example 24, 1-(2-(1-(3,4-Dichlorophenylsulfonyl)pyrrolidin-3-yl)ethylsulfonyl)-4-(pyridin-4-yl)piperazine hydrochloride]
7 | 90 | 103 | COc1cc(C)c(S(=O)(=O)N2CCC(CCS(=O)(=O)N3CCC(CCN4CCCC4)CC3)C2)c(C)c1 (centres unmarked) [Example 25, 1-(2-(1-(4-Methoxy-2,6-dimethylphenylsulfonyl)pyrrolidin-3-yl)ethylsulfonyl)-4-(2-(pyrrolidin-1-yl)ethyl)piperidine hydrochloride]
8 | 93 | 108 | Cc1cccc(Cl)c1S(=O)(=O)N1CCC[C@H]1CCCS(=O)(=O)N1CCN(C2CCN(C)CC2)CC1 [Example 27, (S)-1-(3-(1-(2-Chloro-6-methylphenylsulfonyl)pyrrolidin-2-yl)propylsulfonyl)-4-(1-methylpiperidin-4-yl)piperazine]
9 | 64 | 89 | CN1CCC(N2CCN(S(=O)(=O)CCC[C@@H]3CCCN3S(=O)(=O)c3ccc(Cl)cc3Cl)CC2)CC1 [Example 31, (S)-1-(3-(1-(2,4-Dichlorophenylsulfonyl)pyrrolidin-2-yl)propylsulfonyl)-4-(1-methylpiperidin-4-yl)piperazine]

Continued, compound first:

Row | SMILES | inhibition at 10 µM [1] [%] | inhibition at 10 µM [2] [%]
10 | Cc1cc(C)c(S(=O)(=O)N2CCC(CCS(=O)(=O)N3CCN(c4ccncc4)CC3)C2)c(C)c1 (centres unmarked) [Example 20, 1-(2-(1-(Mesitylsulfonyl)pyrrolidin-3-yl)ethylsulfonyl)-4-(pyridin-4-yl)piperazine hydrochloride] | 75 | 103
11 | COc1cc(C)c(S(=O)(=O)N2CCC(CCS(=O)(=O)N3CCN(c4ccncc4)CC3)C2)c(C)c1C (centres unmarked) [Example 22, 1-(2-(1-(4-Methoxy-2,3,6-trimethylphenylsulfonyl)pyrrolidin-3-yl)ethylsulfonyl)-4-(pyridin-4-yl)piperazine] | 95 | 103
12 | COc1cc(C)c(S(=O)(=O)N2CCCCC2CCCS(=O)(=O)N2CCN(C3CCN(C)CC3)CC2)c(C)c1 (centres unmarked) [Example 26, 1-(3-(1-(4-Methoxy-2,6-dimethylphenylsulfonyl)piperidin-2-yl)propylsulfonyl)-4-(1-methylpiperidin-4-yl)piperazine] | 98 | 96
13 | CN1CCC(N2CCN(S(=O)(=O)CCC[C@@H]3CCCN3S(=O)(=O)c3c(Cl)cc(Cl)cc3Cl)CC2)CC1 [Example 28, (S)-1-(1-Methylpiperidin-4-yl)-4-(3-(1-(2,4,6-trichlorophenylsulfonyl)pyrrolidin-2-yl)propylsulfonyl)piperazine] | 91 | 104
14 | Cc1cc(S(=O)(=O)N2CCC[C@H]2CCCS(=O)(=O)N2CCN(C3CCN(C)CC3)CC2)c(C)cc1Cl [Example 29, (S)-1-(3-(1-(4-Cloro-2,5-dimethylphenylsulfonyl)pyrrolidin-2-yl)propylsulfonyl)-4-(1-methylpiperidin-4-yl)piperazine] | 46 | 87
15 | CN1CCC(N2CCN(S(=O)(=O)CCC[C@@H]3CCCN3S(=O)(=O)c3cccc4ccccc34)CC2)CC1 [Example 30, (S)-1-(1-Methylpiperidin-4-yl)-4-(3-(1-(naphthalen-1-ylsulfonyl)pyrrolidin-2-yl)propylsulfonyl)piperazine] | 48 | 56
16 | COc1cc(C)c(S(=O)(=O)N2CCC[C@H]2CCCS(=O)(=O)N2CCN(C3CCN(C)CC3)CC2)c(C)c1 [Example 32, (S)-1-(3-(1-(4-Methoxy-2,6-dimethylphenylsulfonyl)pyrrolidin-2-yl)propylsulfonyl)-4-(1-methylpiperidin-4-yl)piperazine] | 99 | 105
